Tested on: antennae of mated female C. nigricana
Assay: GC-EAD electro-antennography, antennal response to synthetic pea volatiles
Parameters: species or system Cydia nigricana
Conditions: for increase of antennal response with dose, ANOVA P: GC-EAD dose response over four doses (FIG. 1)
Description: C. nigricana were collected as larvae in the North of Hesse, Germany. The keeping of the insects followed the protocol of Thöming and Saucke (2011). Emerging adults mated in Plexiglas cages (30×30×30 cm) in a climate chamber (18±2° C., 60-70% RH, 18:6h L:D). The moths were provided with 10%-honey water solution and water until the experiment. Antennal recordings and wind tunnel tests were done with five-to-seven-days old mated females. After the experiments, females were dissected to verify their mating status and only mated females were used for analysis.
The synthetic odour sources were prepared to mimic natural pea flower odour. The quantity, ratio and blend composition was based on the identification and quantification of compounds emitted from detached pea flowers (50 flowers/headspace sample; mean value, n=10) of P. sativum (cv. AVOLA). The synthetic analogues of all 28 identified compounds released from pea plant material (Table 1) were used for combined gas chromatography-electroantennal detection (GC-EAD) analysis.
GC-EAD was used for antennal recordings on a HP 6890N gas chromatograph, equipped with an HP-5 (30 m×320 μm×0.25 μm; Agilent, Santa Clara, Calif., US) capillary GC column, programmed from 40° C. (hold for 0.5 min) at 8° C./min to 160° C., then 25° C./min to 230° C. (hold for 4 min), and coupled with an electro-antennogram apparatus (Syntech, Hilversum, The Netherlands). The outlet of the GC column was split in a 1:1 ratio between the flame ionization detector (FID) and a pair of cut pea moth antennae which was connected to the EAD. The antennae were mounted in a holder (Syntech) between two silver electrodes, using electrically conductive Gel (Parker, Fairfield, N.J., US). The EAD capillary effluent was delivered to the antennae through a heated transfer line (Syntech) in a glass tube (12 cm×8 mm) in which humidified air was flowing through. The antennal signal and the FID signal were amplified and recorded simultaneously using Syntech software. Each sample injected on the GC contained 5-9 synthetic compounds with different retention times. Each compound was injected at four doses (200 ng, 60 ng, 20 ng, 6 ng), equivalent to 100 ng, 30 ng, 10 ng, 3 ng tested on the antennae. The antennal responses towards compounds and dose rates, respectively, were replicated three to five times, always using a new pair of antennae. […] Only antennae with differences less than 5 μV between the puff before and after the treatment were used for analysis.

Row | Structure (SMILES) | increase of antennal response with dose, ANOVA P | antennal response to odour puff (antennal condition test) (10 μg in 10 μl hexane on filter paper, puff 10 ml/sec during 0.2 sec)
1 | CCCCCCO [1-hexanol] | 0.0003 | –
2 | CCC/C=C/C=O [2-(E)-hexenal] | 0.0139 | –
3 | CCC/C=C/CO [(E)-2-hexen-1-ol] | 0.0049 | –
4 | C=C/C(C)=C/CC=C(C)C [(E)-β-ocimene] | 0.0051 | –
5 | CC/C=C\CCO [(Z)-3-hexenol] | 0.6578 | –
6 | CC/C=C\CCOC(C)=O [(Z)-3-hexenyl acetate] | 0.0091 | –
7 | C=C/C(C)=C\CC=C(C)C [(Z)-β-ocimene] | 0.0252 | –
8 | C=C/C=C(\C)CCC=C(C)C [DMNT, 4,8-dimethyl-1, (E) 3,7-nonatriene, reference compound] | – | reproducible antennal responses
9 | CCCCCCCCC=O [nonanal] | 0.0067 | –
10 | CCCCCCCC=O [octanal] | < 0.0001 | –

Source: US20160302411A1, “BLENDS AND THEIR USE IN THE CONTROLLING AND/OR TRAPPING OF MOTHS” (BIOFORSK (THE NORWEGIAN INSTITUTE FOR AGRICULTURAL AND …, priority 2013, published 2016)
